From patent US20050048587A1, “Methods for identifying tolerance modulatory compounds and uses therefor” (TolerRx, Inc., priority 2003, published 2005)

B1: IL4: cytokine known to initiate the differentiation of Th2 cells (protein, UniProt P05112 25-153, looked up)
Interleukin-4: HKCDITLQEIIKTLNSLTEQKTLCTELTVTDIFAASKNTTEKETFCRAATVLRQFYSHHEKDTRCLGATAQQFHRHKQLIRFLKRLDRNLWGLAGLNSCPVKEANQSTLENFLERLKTIMREKYSKCSS

Assays:
Assay type in all cases: cell-based, human
Th1 cells = test: [3H] thymidine proliferation assay of differentiated Th1 cells; settings: anti-CD3/CD-28 coated wells, 72 hrs with drug, [3H] thymidine incorporation
Experimental: (§1) Resting, fully differentiated Th1, Th2 and Treg were seeded in wells of a 96 well plate coated with anti-CD3 and CD-28. Cells (200,000 per well) were grown in the presence or absence of a known immunomodulatory drugs including rapamycin, cyclosporine A and Cellcept (MMF) (antiproliferative agent) at the concentrations indicated for 72 hrs prior to the addition of [^3H] thymidine. The cells were then incubated with [^3H] thymidine (0.5 μCi/well) for an additional 6-18 hrs and harvested. [^3H] thymidine incorporation was determined by liquid scintillation counting.

Th2 cells = test: [3H] thymidine proliferation assay of differentiated Th2 cells; settings: anti-CD3/CD-28 coated wells, 72 hrs with drug, [3H] thymidine incorporation
Experimental: as §1

[1] = tested on: peripheral blood lymphocytes (PBLs); test: Assay of cell proliferation of stimulated PBL; settings: PBL stimulated with anti-CD3/anti-CD28, 72 hours
Experimental: FIG. 3 graphically depicts the proliferation of peripheral blood lymphocytes (PBLs) at 72 hours post-stimulation with αCD3/αCD28 in the presence of the known immunomodulatory agents, rapamycin, cyclosporine, and Cellcept (MMF) (anti-proliferative agent). Proliferation is relative to that observed in control, stimulated PBL (in the absence of any added agent).
PBL were activated with anti-CD3 in combination with anti-CD28 in the presence or absence of the known immunomodulatory drugs including dexamethasone, rapamycin, cyclosporine A and Cellcept (antiproliferative agent) at the concentrations indicated. At 72 hours, RNA was prepared from the treated cells and the untreated controls. Real-time PCR was performed using cDNA from the RNA and using the primers and probes for the three transcription factors. The data are set forth in FIG. 2A-D. Dexamethasone is documented to result in a shift of in vivo immune responses towards characteristics recognized to be associated with Th2 cells when administered to both humans and animals. […] Rapamycin and cyclosporine are general immunosuppressants utilized to prevent allograft rejection in humans. Both drugs are known to utilize common cellular components. […] Cellcept is an anti-proliferative agent also used in organ transplantation. Its primary effect on the immune system is believed to be simple reduction of lymphocyte proliferation.

Th2 cytokines = test: Cytokine production by differentiated Th2 cells, multiplexed ELISA; settings: anti-CD3/CD-28 coated wells, 72 hrs with drug, supernatants
Experimental: (§2) Resting, fully differentiated Th1, Th2 and Treg were seeded in wells sof a 96 well plate coated with anti-CD3 and CD-28. Cells (200,000 per well) were grown in the presence or absence of a known immunomodulatory drugs including rapamycin, cyclosporine A and Cellcept (MMF) (antiproliferative agent) at the concentrations indicated for 72 hrs prior to the collection of supernatants for measurement of secreted cytokines. Cytokine measurement were made using a multiplexed ELISA assay (Pierce/Endogen Searchlight Assay).

Treg cells = test: [3H] thymidine proliferation assay of differentiated Treg cells; settings: anti-CD3/CD-28 coated wells, 72 hrs with drug, [3H] thymidine incorporation
Experimental: as §1

Th1 cytokines = test: Cytokine production by differentiated Th1 cells, multiplexed ELISA; settings: anti-CD3/CD-28 coated wells, 72 hrs with drug, supernatants
Experimental: as §2

FOXP3 = FOXP3 transcription factor mRNA expression, real-time PCR, in stimulated PBL; settings: PBL stimulated 72 hrs with anti-CD3/anti-CD28 in presence of agent; relative to stimulated PBL without agent
Experimental: (§3) CD4+CD45RA+naïve, CD4+CD45RA−memory cells were prepared as follows. A Buffy Coat from human peripheral blood was obtained from the Oklahoma Blood Institute and processed as follows. Blood was diluted 1:2 with PBS without Ca^++Mg^++. 30 ml diluted blood was overlaid onto 15 ml Ficoll. Tubes were spun for ˜30 minutes at 2000 rpm. The Buffy cell layer was harvested into 25 ml PBS and brought to a volume of 45 ml total. Tubes were then spun ˜10 minutes at […]. Tubes were finally combined and washed with PBS. Approximately 10 percent of the cell preparation was set aside (X-VIVO 15 media+10% FCS) and is referred to hereinafter as “PBL.”
(§4) Cells (i.e., PDL, CD4+ naive, and CD4+ memory cells), were plated in six well dishes at approximately 3-4×10^6 cells/well. Prior to plating, wells were coated with αCD3/αCD28 antibodies. This was achieved by incubating the wells in the presence of antibodies for approximately 2 hrs at 37° C. Wells were subsequently washed with PBS. Cells were plated in X-VIVO 15 with 10% FCS. […]
(§5) 2.5 μl Assay on Demand reagent (Applied Biosystems) were added to 25 μl TaqMan Master MiX™ and samples brought to a total volume of 50 μl with RNAse-free water. […] Reactants were detected using an Applied Biosystems QPCR instrument (i.e., ABI Program 7000 SDS Sequence Detection System). […] The relative expression of the markers in each cell type and at each time point was also determined. […]

GATA3 = GATA3 transcription factor mRNA expression, real-time PCR, in stimulated PBL; settings: PBL stimulated 72 hrs with anti-CD3/anti-CD28 in presence of agent; relative to stimulated PBL without agent
Experimental: as §3, §4, §5

Tbox21 = Tbox21 (TBX21) transcription factor mRNA expression, real-time PCR, in stimulated PBL; settings: PBL stimulated 72 hrs with anti-CD3/anti-CD28 in presence of agent; relative to stimulated PBL without agent
Experimental: as §3, §4, §5

TGFβ by Treg cells = test: TGFβ production by differentiated Treg cells, multiplexed ELISA; settings: anti-CD3/CD-28 coated wells, 72 hrs with drug, supernatants
Experimental: as §2

| Molecule | effect on proliferation of Th1 cells (Th1 cells) | effect on proliferation of Th2 cells (Th2 cells) | effect on cell proliferation [1] | effect on Th2 cytokine production (Th2 cytokines) | effect on proliferation (expansion) of Treg cells (Treg cells) | effect on Th1 cytokine production (Th1 cytokines) | effect on FOXP3 (Treg transcription factor) expression (FOXP3) | effect on GATA3 (Th2 transcription factor) expression (GATA3) | effect on Tbox21/TBX21 (Th1 transcription factor) expression (Tbox21) | effect on production of TGFβ by Treg cells (TGFβ by Treg cells) |
| --- | --- | --- | --- | --- | --- | --- | --- | --- | --- | --- |
| COc1c(C)c2c(c(O)c1C/C=C(\C)CCC(=O)OCCN1CCOCC1)C(=O)OC2 [Cellcept] | equally inhibited the expansion of all cell types in a dose dependent manner | equally inhibited the expansion of all cell types in a dose dependent manner | dose-dependent inhibition of proliferation | does not suppress | equally inhibited the expansion of all cell types in a dose dependent manner | does not suppress | did not affect | did not affect | did not affect | does not suppress any cytokine measured except for TGFβ in T reg cells |
| TGFβ | – | – | – | – | – | – | induced | – | – | – |
| B1 | – | – | – | – | – | – | – | clearly increased | – | – |
